# Results taken from article PMC4698308, “A new amino acid substitution (Ala-205-Phe) in acetolactate synthase (ALS) confers broad spectrum resistance to ALS-inhibiting herbicides” (Planta, 2015).
# Like-named read-outs stand apart in the source and are kept apart here.
# Key:
# [1] = biological target: T1, recombinant Arabidopsis thaliana ALS wild-type enzyme (WT—sensitive) (Arabidopsis thaliana, UniProt P17597); test: biochemical
# T1 construct: Protein constructs contained an 85 amino acid N-terminal deletion (chloroplast transit peptide); Hexa-histidine tag (N); made in house
# T1 sequence (P17597 86-670): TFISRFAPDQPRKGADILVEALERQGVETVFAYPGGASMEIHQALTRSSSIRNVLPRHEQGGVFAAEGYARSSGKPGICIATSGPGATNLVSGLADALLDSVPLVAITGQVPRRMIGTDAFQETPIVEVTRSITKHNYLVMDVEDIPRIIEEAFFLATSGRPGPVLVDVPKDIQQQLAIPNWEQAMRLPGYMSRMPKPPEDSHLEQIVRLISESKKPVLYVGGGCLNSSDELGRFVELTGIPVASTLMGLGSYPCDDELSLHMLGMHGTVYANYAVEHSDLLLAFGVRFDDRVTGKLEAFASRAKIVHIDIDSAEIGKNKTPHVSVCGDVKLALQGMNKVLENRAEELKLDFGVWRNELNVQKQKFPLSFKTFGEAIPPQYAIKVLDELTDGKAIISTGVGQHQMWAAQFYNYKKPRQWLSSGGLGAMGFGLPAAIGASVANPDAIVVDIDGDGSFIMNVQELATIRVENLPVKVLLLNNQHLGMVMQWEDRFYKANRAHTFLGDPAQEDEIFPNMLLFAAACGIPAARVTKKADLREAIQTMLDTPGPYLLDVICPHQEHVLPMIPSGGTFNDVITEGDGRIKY
# Description: (§1) Effects of SNPs identified in sequencing analysis on ALS activity were studied using A. thaliana. The ALS gene from A. thaliana and derivatives thereof were de novo synthesized and subcloned into pET-24d(+) (Life Technologies. Grand Island, NY, USA) using NcoI and XhoI restriction sites. Protein constructs contained an 85 amino acid N-terminal deletion (chloroplast transit peptide) and the addition of an N-terminal Hexa-histidine tag to facilitate purification.
# (§2) Lysis was performed by at least two passes through a fluidizer, followed by centrifuging at 80000×g for 30 min at 4 °C. […] Fractions containing ALS protein were pooled and stored at −20 °C.
# (§3) Inhibitors, purchased from Sigma as Pestanal standards (Sigma-Aldrich, Deisenhofen, Germany), were dissolved in DMSO and added to the reaction mixture. Inhibitors evaluated included imidazolinone, sulfonylurea, triazolopyrimidines, sulfonylamino-carbonyl- triazolinones, and pyrimidinyl (thio) benzoate herbicides. The reaction mixture was incubated at 30 °C for 60 min and stopped with 70 µl of H2SO4 (3 M). The reaction was then heated to 56 °C for 15 min to convert acetolactate into acetoin. […] For each inhibitor, resistance factors were calculated by dividing IC50 values for mutant and sensitive ALS.
# [2] = test system: recombinant Arabidopsis thaliana ALS variant A205V; type: biochemical; conditions: IC50 mutant divided by IC50 sensitive ALS; max inhibitor concentration 1.00 × 10^−04 M
# Description: as §1, §2, §3
# [3] = test system: recombinant Arabidopsis thaliana ALS variant W574L; type: biochemical; conditions: IC50 mutant divided by IC50 sensitive ALS; max inhibitor concentration 1.00 × 10^−04 M
# Description: as §1, §2, §3
# [4] = test system: annual bluegrass (Poa annua L.); test: Whole plant non-target site resistance experiment, foramsulfuron vs sulfometuron (control and plant height 28 days after treatment); type: in vivo
# Description: A second experiment was conducted to determine if non-target mechanisms could confer resistance to ALS inhibiting herbicides in our annual bluegrass population, POAAN-R3. ALS-resistant (RP1–RP8) and susceptible (S) plants were cultured in plastic conical containers under previously described glasshouse conditions for 28 days before being treated with foramsulfuron (29 g ha^−1) or sulfometuron-methyl (Oust XP; Dupont Professional Products. Wilmington, DE, USA) at 105 g ai ha^−1. Sulfometuron-methyl is an ALS inhibiting herbicide not metabolized by cytochrome P450 monooxygenases; therefore, it can be used to discern if weed populations survive ALS inhibiting herbicide treatment via target- or non-target site based mechanisms (Christopher et al. [1992]). Per label recommendations, sulfometuron-methyl included non-ionic surfactant at 0.25 % v/v. Treatments were mixed in water carrier applied in an enclosed spray chamber, as previously described, on 13 March 2015.
# Annual bluegrass control was visually assessed on a 0 (i.e., no control) to 100 % (i.e., complete kill) scale relative to the non-treated 28 days after treatment. After all control data had been collected, plant height data were collected using a ruler placed at the soil surface of each plastic conical container and recording the distance to the tip of the bud leaf. Treatments were arranged as a 9 × 3 factorial with nine plant selections (RP1–RP8, S) and three herbicides (foramsulfuron, sulfometuron-methyl, non-treated) in a completely randomized design with four replications and repeated in separate glasshouses during March 2015.
# [5] = test system: annual bluegrass (Poa annua L.); test: Whole plant non-target site resistance experiment with P450 inhibitors malathion or PBO (control 21 days after treatment); type: in vivo; conditions: for Annual bluegrass control S: susceptible (S)
# Description: Additional experiments were conducted during March–April 2015 to determine if non-target site based mechanisms conferred resistance to ALS inhibitors in our annual bluegrass population, POAAN-R3. Plants (RP6, RP7, and S) were cultured in plastic conical containers as previously described and allowed to acclimate to the glasshouse for 18 days prior to initiating two experiments.
# In the first experiment, resistant (RP6, RP7) and susceptible (S) plants were treated with foramsulfuron at 29 g ha^−1, trifloxysulfuron (Monument. Syngenta Professional Products. Greensboro, NC, USA) at 27.8 g ha^−1, imazaquin (Image. BASF Corporation. Research Triangle Park, NC) at 27.5 g ha^−1, or bispyribac-sodium (Velocity. Valent USA Corporation. Walnut Creek, CA, USA) at 70 g ha^−1. All herbicides were applied alone or in combination with either malathion (Spectrum Group. St. Louis, MO, USA) at 1000 g ha^−1 or piperonyl butoxide (Sigma Aldrich. St. Louis, MO, USA) at 2100 g ha^−1. Malathion and piperonyl butoxide (PBO) inhibit cytochrome P450 monooxygenases involved in metabolism of ALS inhibiting herbicides and are commonly used at the application rates tested herein to evaluate non-target site based resistance mechanisms in weeds (Burnet et al. [1994]; Christopher et al. [1992]; Yu and Powles [2014b]; Rao et al. [1995]). All herbicides were mixed in water carrier and included non-ionic surfactant at 0.25 % v/v. Malathion and PBO were mixed with methanol and de-ionized water (50:50) and applied 60 min prior to herbicide application using a previously described enclosed spray chamber on 13 February 2015.
# Annual bluegrass control was visually assessed on a 0 (i.e., no control) to 100 % (i.e., complete kill) scale relative to the non-treated 21 days after treatment. After all control data had been collected, aboveground biomass was harvested from each plastic conical container at the soil line using scissors, dried at 100 °C, and weighed. Treatments were arranged as a 3 × 5 × 3 factorial with three plant selections (RP6, RP7, S), five herbicides (foramsulfuron, trifloxysulfuron, imazaquin, bispyribac-sodium, non-treated) and three P450 inhibitor treatments (malathion, PBO, non-treated) in a completely randomized design with four replications and repeated in separate glasshouses during February 2015.
compound,measurement,setting,value
COc1nc(C)nc(NC(=O)NS(=O)(=O)c2ccccc2CCC(F)(F)F)n1 [Prosulfuron],IC50,[1],2.88 nM
same,Resistance factor A205V,[2],88
same,Resistance factor W574L,[3],3524
CC(C)C1(C)N=C(c2ncccc2C(=O)O)NC1=O (stereo not drawn) [Imazapyr],IC50,[1],6060 nM
same,Resistance factor A205V,[2],16
same,Resistance factor W574L,[3],16
"COC(=O)c1ccccc1S(=O)(=O)NC(=O)Nc1nc(C)cc(C)n1 [Sulfometuron, Sulfometuron-methyl]",Annual bluegrass control RP1,"[4]; RP1, 28 days after treatment, minimum of two tillers, foramsulfuron 29, sulfometuron 105 g ha^−1",24%
same,Annual bluegrass height RP1,"[4]; RP1, plant height 28 days after treatment, foramsulfuron 29, sulfometuron 105 g ha^-1, non-treated 118 mm",76 mm
same,Annual bluegrass control RP2,"[4]; RP2, 28 days after treatment, minimum of two tillers, foramsulfuron 29, sulfometuron 105 g ha^−1",29%
same,Annual bluegrass height RP2,"[4]; RP2, plant height 28 days after treatment, foramsulfuron 29, sulfometuron 105 g ha^-1, non-treated 129 mm",65 mm
same,Annual bluegrass control RP3,"[4]; RP3, 28 days after treatment, minimum of two tillers, foramsulfuron 29, sulfometuron 105 g ha^−1",21%
same,Annual bluegrass height RP3,"[4]; RP3, plant height 28 days after treatment, foramsulfuron 29, sulfometuron 105 g ha^-1, non-treated 173 mm",78 mm
same,Annual bluegrass control RP4,"[4]; RP4, 28 days after treatment, minimum of two tillers, foramsulfuron 29, sulfometuron 105 g ha^−1",21%
same,Annual bluegrass height RP4,"[4]; RP4, plant height 28 days after treatment, foramsulfuron 29, sulfometuron 105 g ha^-1, non-treated 140 mm",71 mm
same,Annual bluegrass control RP5,"[4]; RP5, 28 days after treatment, minimum of two tillers, foramsulfuron 29, sulfometuron 105 g ha^−1",26%
same,Annual bluegrass height RP5,"[4]; RP5, plant height 28 days after treatment, foramsulfuron 29, sulfometuron 105 g ha^-1, non-treated 114 mm",68 mm
same,Annual bluegrass control RP6,"[4]; RP6, 28 days after treatment, minimum of two tillers, foramsulfuron 29, sulfometuron 105 g ha^−1",76%
same,Annual bluegrass height RP6,"[4]; RP6, plant height 28 days after treatment, foramsulfuron 29, sulfometuron 105 g ha^-1, non-treated 106 mm",56 mm
same,Annual bluegrass control RP7,"[4]; RP7, 28 days after treatment, minimum of two tillers, foramsulfuron 29, sulfometuron 105 g ha^−1",28%
same,Annual bluegrass height RP7,"[4]; RP7, plant height 28 days after treatment, foramsulfuron 29, sulfometuron 105 g ha^-1, non-treated 125 mm",69 mm
same,Annual bluegrass control RP8,"[4]; RP8, 28 days after treatment, minimum of two tillers, foramsulfuron 29, sulfometuron 105 g ha^−1",21%
same,Annual bluegrass height RP8,"[4]; RP8, plant height 28 days after treatment, foramsulfuron 29, sulfometuron 105 g ha^-1, non-treated 132 mm",67 mm
same,Annual bluegrass control S,"[4]; susceptible (S), 28 days after treatment, minimum of two tillers, foramsulfuron 29, sulfometuron 105 g ha^−1",99%
same,Annual bluegrass height S,"[4]; susceptible (S), plant height 28 days after treatment, foramsulfuron 29, sulfometuron 105 g ha^-1, non-treated 111 mm",9 mm
COc1cc(OC)n2nc(NS(=O)(=O)c3c(C(F)(F)F)ccnc3OC)nc2n1 [Pyroxulam],IC50,"[1]; concentration for 50 % inhibition of WT enzyme, max inhibitor concentration 1.00 × 10^−04 M, read-out: WT sensitivity [IC50]",4.12 nM
same,Resistance factor A205V,[2],162
same,Resistance factor W574L,[3],"24,268"
O=C(Nc1nc(OC(F)F)cc(OC(F)F)n1)NS(=O)(=O)c1ccccc1C(=O)O [Primisulfuron],IC50,[1],3.14 nM
same,Resistance factor A205V,[2],429
same,Resistance factor W574L,[3],5728
COc1cc(OC)nc(Oc2cccc(Oc3nc(OC)cc(OC)n3)c2C(=O)O)n1 [Bispyribac-sodium],Annual bluegrass control RP6,"[5]; RP6, herbicide alone, foramsulfuron 29, trifloxysulfuron 27.8, imazaquin 27.5, bispyribac-sodium 70 g ha^−1",28%
same,Annual bluegrass control RP6,"[5]; RP6, herbicide with PBO 2100 g ha^−1 applied 60 min prior",20%
same,Annual bluegrass control RP6,"[5]; RP6, herbicide with malathion 1000 g ha^−1 applied 60 min prior",32%
same,Annual bluegrass control RP7,"[5]; RP7, herbicide alone, foramsulfuron 29, trifloxysulfuron 27.8, imazaquin 27.5, bispyribac-sodium 70 g ha^−1",7%
same,Annual bluegrass control RP7,"[5]; RP7, herbicide with PBO 2100 g ha^−1 applied 60 min prior",14%
same,Annual bluegrass control RP7,"[5]; RP7, herbicide with malathion 1000 g ha^−1 applied 60 min prior",47%
same,Annual bluegrass control S,"[5]; herbicide alone, foramsulfuron 29, trifloxysulfuron 27.8, imazaquin 27.5, bispyribac-sodium 70 g ha^−1",90%
same,Annual bluegrass control S,[5]; herbicide with PBO 2100 g ha^−1 applied 60 min prior,86%
same,Annual bluegrass control S,[5]; herbicide with malathion 1000 g ha^−1 applied 60 min prior,92%
